Source: US20230339970A1, “CASEIN KINASE 1 DELTA MODULATORS” (priority 2020, published 2023)

Key:
[1] = target: T1, human CSNK1D (Homo sapiens, UniProt P48730); test: Whole Cell nBRET CSNK1D Binding Assay; conditions: living CHO cells stably expressing human CSNK1D tagged with nanoluciferase; NanoBret tracer 130 nM; 2 hours at 37 C
T1 construct: expressed in transfected cells

[2] = target: T2, human recombinant GST cleaved CSNK1D (Homo sapiens, UniProt P48730); test: Purified Enzyme Assay (ADP-Glo CSNK1D Kinase Assay); format: biochemical; conditions: 2 nM CSNK1D; peptide substrate 150 μM; ATP 20 μM; 45 minutes at room temperature
T2 construct: GST (cleaved yes); purchased University of Dundee clone DU 19064
T2 sequence (P48730 whole entry): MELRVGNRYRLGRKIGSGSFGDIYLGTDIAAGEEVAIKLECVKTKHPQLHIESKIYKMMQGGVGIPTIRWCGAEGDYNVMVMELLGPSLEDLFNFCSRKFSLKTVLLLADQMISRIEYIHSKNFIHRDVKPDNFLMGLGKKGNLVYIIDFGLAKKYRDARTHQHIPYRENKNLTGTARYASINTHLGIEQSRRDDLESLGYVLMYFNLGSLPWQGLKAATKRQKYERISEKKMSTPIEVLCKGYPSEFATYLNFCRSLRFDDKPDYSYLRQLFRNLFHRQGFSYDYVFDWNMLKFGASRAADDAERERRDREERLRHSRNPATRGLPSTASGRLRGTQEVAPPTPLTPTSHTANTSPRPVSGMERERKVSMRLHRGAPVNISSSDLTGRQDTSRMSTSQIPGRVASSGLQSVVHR
Summary of the method: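 GST-cleaved human recombinant CSNK1D phosphorylates peptide PLSRTL-pS-VASLPGL with ATP; compounds added in dose-response, 45 min at room temperature. ADP formed measured by ADP-Glo luminescence and converted to percent activity.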

T1 sequence (P48730 whole entry): as above

| Compound | IC50 [1] | IC50 [2] |
| --- | --- | --- |
| Cc1cn2nccc2cc1-c1c(-c2ccc(F)cn2)nn2c1OCC(C)(C)C2 [Example 451, 2-(5-Fluoro-2-pyridyl)-6,6-dimethyl-3-(6-methylpyrazolo[1,5-a]pyridin-5-yl)-5,7-dihydropyrazolo[5,1-b][1,3]oxazine] | 5760 nM | 132 nM |
| Cc1cc(-c2c(-c3ccc(F)cn3)nn3c2COC(C)(C)C3)c2cn[nH]c2n1 [Example 154, 2-(5-Fluoro-2-pyridyl)-6,6-dimethyl-3-(6-methyl-1H-pyrazolo[3,4-b]pyridin-4-yl)-4,7-dihydropyrazolo[5,1-c][1,4]oxazine] | 23 nM | 2 nM |
| CC1(C(F)(F)F)Cn2nc(-c3ccc(F)cc3)c(-c3ccnc4[nH]ncc34)c2CO1 (single isomer, unassigned) [Example 416, (*R)-2-(4-Fluorophenyl)-6-methyl-3-(1H-pyrazolo[3,4-b]pyridin-4-yl)-6-(trifluoromethyl)-6,7-dihydro-4H-pyrazolo[5,1-c][1,4]oxazine] | 118 nM | 17 nM |
| CC(C)[C@H]1Cn2nc(-c3ccc(F)cn3)c(-c3ccnc4[nH]ncc34)c2CO1 (single isomer, unassigned) [Example 98, (*S)-2-(5-Fluoropyridin-2-yl)-6-isopropyl-3-(1H-pyrazolo[3,4-b]pyridin-4-yl)-6,7-dihydro-4H-pyrazolo[5,1-c][1,4]oxazine] | 2280 nM | 31 nM |
| Fc1ccc(-c2nn3c(c2-c2ccnc4[nH]ncc24)CC[C@@H]2[C@H]3C2(F)F)cc1 (stereo in doubt) [Example 356, (5a*R,6a*S-6,6-Difluoro-2-(4-fluorophenyl)-3-(1H-pyrazolo[3,4-b]pyridin-4-yl)-5,5a,6,6a-tetrahydro-4H-cyclopropa[e]pyrazolo[1,5-a]pyridine] | 2 nM | 1 nM |
| Cc1cc(-c2c(-c3cscn3)nn3c2CCCC3)c2cn[nH]c2n1 [Example 32, 4-(3-(6-Methyl-1H-pyrazolo[3,4-b]pyridin-4-yl)-4,5,6,7-tetrahydropyrazolo[1,5-a]pyridin-2-yl)thiazole] | 3020 nM | 60 nM |
| CC1(CF)CCc2c(-c3ccnc(N)c3)c(-c3ccc(F)cn3)nn2C1 (single isomer, unassigned) [Example 286, (*S)-4-[6-(Fluoromethyl)-2-(5-fluoro-2-pyridyl)-6-methyl-5,7-dihydro-4H-pyrazolo[1,5-a]pyridin-3-yl]pyridin-2-amine] | 81 nM | 4 nM |
| Fc1ccc(-c2nn3c(c2-c2ccnc4[nH]ncc24)CO[C@@H](C2CC2)C3)nc1 (single isomer, unassigned) [Example 109, (*S)-6-Cyclopropyl-2-(5-fluoropyridin-2-yl)-3-(1H-pyrazolo[3,4-b]pyridin-4-yl)-6,7-dihydro-4H-pyrazolo[5,1-c][1,4]oxazine] | 301 nM | 15 nM |
| CC(C)[C@@H]1Cn2nc(-c3ccc(F)cn3)c(-c3ccnc4[nH]ncc34)c2CO1 (single isomer, unassigned) [Example 97, (*R)-2-(5-Fluoropyridin-2-yl)-6-isopropyl-3-(1H-pyrazolo[3,4-b]pyridin-4-yl)-6,7-dihydro-4H-pyrazolo[5,1-c][1,4]oxazine] | 5050 nM | 63 nM |
| Cc1cc(-c2c(-c3ccc(F)cc3)nn3c2OCC2(COC2)C3)c2cn[nH]c2n1 [Example 211, 2′-(4-Fluorophenyl)-3′-(6-methyl-1H-pyrazolo[3,4-b]pyridin-4-yl)-5′H,7′H-spiro[oxetane-3,6′-pyrazolo[5,1-b][1,3]oxazine]] | 6 nM | 1 nM |
| Fc1ccc(-c2nn3c(c2-c2ccnc4[nH]c(C(F)F)cc24)COCC3)nc1 [Example 75, 3-(2-(Difluoromethyl)-1H-pyrrolo[2,3-b]pyridin-4-yl)-2-(5-fluoropyridin-2-yl)-6,7-dihydro-4H-pyrazolo[5,1-c][1,4]oxazine] | > 10000 nM | 15 nM |
| CC[C@@]1(C)Cn2nc(-c3ccc(F)cn3)c(-c3ccnc4[nH]ncc34)c2CO1 (single isomer, unassigned) [Example 170, *S-6-Ethyl-2-(5-fluoropyridin-2-(l)-6-methyl-3-(1H-pyrazolo[3,4-b]pyridin-4-yl)-6,7-dihydro-4H-pyrazolo[5,1-c][1,4]oxazine] | 42 nM | 2 nM |
| Fc1ccc(-c2nn3c(c2-c2ccnc4[nH]ncc24)CC2(C3)CC2(F)F)nc1 (single isomer, unassigned) [Example 254, (*S)-1′1l′-Difluoro-2-(5-fluoro-2-pyridyl)-3-(1H-pyrazolo[3,4-b]pyridin-4-yl)spiro[4,6-dihydropyrrolo[1,2-b]pyrazole-5,2′-cyclopropane]] | 85 nM | 4 nM |
| COC[C@@]1(F)CCc2c(-c3cc(C)nc4[nH]ncc34)c(-c3ccc(F)cn3)nn2C1 (single isomer, unassigned) [Example 54, (*R)-4-(6-Fluoro-2-(5-fluoropyridin-2-yl)-6-(methoxymethyl)-4,5,6,7-tetrahydropyrazolo[1,5-a]pyridin-3-yl)-6-methyl-1H-pyrazolo[3,4-b]pyridine] | 3740 nM | 84 nM |
| Cc1cnn2ccc(-c3c(-c4ccc(F)cn4)nn4c3COC(C)(C)C4)cc12 [Example 383, 2-(5-Fluoro-2-pyridyl)-6,6-dimethyl-3-(3-methylpyrazolo[1,5-a]pyridin-5-yl)-4,7-dihydropyrazolo[5,1-c][1,4]oxazine] | 1040 nM | 20 nM |
| Nc1cc(-c2c(-c3ccc(F)cc3)nn3c2C[C@H](F)C3)ccn1 [Example 10, (S)-4-(5-Fluoro-2-(4-fluorophenyl)-5,6-dihydro-4H-pyrrolo[1,2-b]pyrazol-3-yl)pyridin-2-amine] | 14 nM | 1 nM |
| CC1(C)Cn2nc(-c3ccc(F)cn3)c(-c3ccnc(NC(=O)c4ccccc4)c3)c2CO1 [Example 136, N-(4-(2-(5-Fluoropyridin-2-yl)-6,6-dimethyl-6,7-dihydro-4H-pyrazolo[5,1-c][1,4]oxazin-3-yl)pyridin-2-yl)benzamide] | 6 nM | 2 nM |

The next lines start with the values.

| IC50 [1] | IC50 [2] | Compound |
| --- | --- | --- |
| 49 nM | 5 nM | Fc1ccc(-c2nn3c(c2-c2c(F)cnc4[nH]ncc24)COC2(C3)CC2(F)F)nc1 (single isomer, unassigned) [Example 435, (*R)-1′. 1′-Difluoro-3-(5-fluoro-1H-pyrazolo[3,4-b]pyridin-4-yl)-2-(5-fluoro-2-pyridyl)spiro[4,7-dihydropyrazolo[5,1-c][1,4]oxazine-6,2′-cyclopropane]] |
| 23 nM | 2 nM | Cc1cc(-c2c(-c3ccc(F)cn3)nn3c2CC(C)(C)C3)c2cn[nH]c2n1 [Example 238, 4-[2-(5-Fluoro-2-pyridyl)-5,5-dimethyl-4,6-dihydropyrrolo[1,2-b]pyrazol-3-yl]-6-methyl-1H-pyrazolo[3,4-b]pyridine] |
| > 10000 nM | 235 nM | Cc1n[nH]c2nccc(-c3c(-c4ccc(F)cn4)nn4c3COC(C)(C(F)(F)F)C4)c12 (single isomer, unassigned) [Example 419, (*S)-2-(5-Fluoropyridin-2-yl)-6-methyl-3-(3-methyl-1H-pyrazolo[3,4-b]pyridin-4-yl)-6-(trifluoromethyl)-6,7-dihydro-4H-pyrazolo[5,1-c][1,4]oxazine] |
| 1320 nM | 97 nM | COCC1(F)CCc2c(-c3c(F)c(C)nc4[nH]ncc34)c(-c3ccc(F)cn3)nn2C1 (single isomer, unassigned) [Example 309, (*R)-5-Fluoro-4-[6-fluoro-2-(5-fluoro-2-pyridyl)-6-(methoxymethyl)-5,7-dihydro-4H-pyrazolo[1,5-a]pyridin-3-yl]-6-methyl-1H-pyrazolo[3,4-b]pyridine] |
| 2670 nM | 63 nM | Cc1cc(-c2c(-c3ccc(F)cn3)nn3c2CC2(C3)CC2(F)F)c2cn[nH]c2n1 (single isomer, unassigned) [Example 261, (*R)-1′,1′-Difluoro-2-(5-fluoro-2-pyridyl)-3-(6-methyl-1H-pyrazolo[3,4-b]pyridin-4-yl)spiro[4,6-dihydropyrrolo[1,2-b]pyrazole-5,2′-cyclopropane]] |
| 143 nM | 9 nM | Cc1n[nH]c2nccc(-c3c(-c4ccc(F)cn4)nn4c3COC(C)(C)C4)c12 [Example 160, 2-(5-Fluoropyridin-2-yl)-6,6-dimethyl-3-(3-methyl-1H-pyrazolo[3,4-b]pyridin-4-yl)-6,7-dihydro-4H-pyrazolo[5,1-c][1,4]oxazine] |
| 107 nM | 3 nM | Cc1cc(-c2c(-c3ccc(F)cn3)nn3c2C[C@@]2(C3)CC2(F)F)c2cn[nH]c2n1 (single isomer, unassigned) [Example 260, (*S)-1′,1′-Difluoro-2-(5-fluoro-2-pyridyl)-3-(6-methyl-1H-pyrazolo[3,4-b]pyridin-4-yl)spiro[4,6-dihydropyrrolo[1,2-b]pyrazole-5,2′-cyclopropane]] |
| 151 nM | 8 nM | C[C@H]1COCc2c(-c3ccnc4[nH]ncc34)c(-c3ccc(F)cc3)nn21 (single isomer, unassigned) [Example 91, (*S)-2-(4-Fluorophenyl)-7-methyl-3-(1H-pyrazolo[3,4-b]pyridin-4-yl)-6,7-dihydro-4H-pyrazolo[5,1-c][1,4]oxazine] |
| 48 nM | 5 nM | Cc1nc2[nH]ncc2c(-c2c(-c3ccc(F)cn3)nn3c2OC[C@@H]2C[C@@H]2C3)c1F (stereo in doubt) [Example 483, (5a*S,6a*R)-3-(5-Fluoro-6-methyl-1H-pyrazolo[3,4-b]pyridin-4-yl)-2-(5-fluoropyridin-2-yl)-5a,6,6a,7-tetrahydro-5H-cyclopropa[e]pyrazolo[5,1-b][1,3]oxazepine] |
